Measurements reported in US12612420B2, “Arginase inhibitors and methods of use thereof” (Molecure S.A., priority 2020, dated 2026).
Where a name gives a salt, the structure may show the parent alone.

Tests used:
[1] = target: T1, intracellular arginase in macrophages isolated from murine bone marrow (BMDM) (Mus musculus, UniProt Q61176); test: Cell-based assay: intracellular arginase in bone marrow derived macrophages (BMDM), urea in culture medium; set-up: species or system murine (C57BL/6 mice); details: IC50 class; M2-polarised murine BMDM (M-CSF, TGF-β, IL-4), urea in medium after 24 hours
T1 construct: endogenous in cells; host or cells: primary bone-marrow-derived macrophages from C57BL/6 mice, cultured with M-CSF, TGF-β and IL-4
T1 sequence (Q61176 1-323): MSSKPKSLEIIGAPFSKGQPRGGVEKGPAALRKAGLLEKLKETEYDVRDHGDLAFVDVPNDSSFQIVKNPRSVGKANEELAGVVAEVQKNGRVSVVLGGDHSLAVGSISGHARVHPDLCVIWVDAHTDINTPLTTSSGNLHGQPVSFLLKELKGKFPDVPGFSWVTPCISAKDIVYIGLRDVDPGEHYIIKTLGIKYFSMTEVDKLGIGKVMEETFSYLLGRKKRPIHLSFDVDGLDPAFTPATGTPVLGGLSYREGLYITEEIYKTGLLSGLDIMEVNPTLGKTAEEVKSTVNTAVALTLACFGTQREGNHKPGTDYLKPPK
Procedure: To illustrate the lower cellular activity of the compounds according to the invention versus arginase inhibitors disclosed in U.S. Ser. No. 10/391,077 B2, the selected examples were tested in cell-based assay using murine primary macrophages. Lower intracellular activity observed for the compounds according to the invention may potentially result in lower hepatotoxicity compared to the arginase inhibitors disclosed in U.S. Ser. No. 10/391,077 B2.
Efficacy of Selected Examples Towards Intracellular Arginase in Macrophages Isolated from Murine Bone Marrow—Bone Marrow Derived Macrophages (BMDM)
Murine bone marrow-derived or peritoneal macrophages comprise a convenient in vitro model that enables differentiation of these cells towards M1 or M2 macrophages and further use for the study.
Materials & Methods: The assay was performed according to modified literature protocol (Pineda-Torra I et al., Methods Mol Biol. 2015; 1339:101-9. Mia S et al., Scand J Immunol. 2014 May; 79(5):305-14). The femurs and tibias were isolated from C57BL/6 mice. Bones were cleaned from all attached tissues by using a sterile swab without affecting the bone structure. The sides of the bones were cut off and flush with cold sterile PBS by using 26-G needle S into a 50 mL sterile tube with a cell strainer (Falcon™, Cat. No. U00149), until the bone cavity appeared white. Then, the cells were centrifuged (5 min at 500×G, 4° C.), washed twice with PBS and counted. Cells were plated in Petri dish in density of 1×10^6/mL and cultured in DMEM (Gibco, Cat. No. 31331-029) with 10% FBS, 1% pen-strep and 50 ng/mL M-CSF (PeproTech, Cat. No. 315-02), (37° C., 5% CO2). After five days cells were subcultured into P96 plate (BD, Cat. No. 353072) at the density of 64,000 cells/well in medium supplemented with 50 ng/mL M-CSF, 20 ng/mL TGF-β and 30 ng/mL IL-4 (Biomibo Cat. No. 214-1). One day later exemplary compounds (dissolved in PBS) were added in several different concentrations and 24 hours later the level of urea was measured in the culture medium in each well (Jung D et al., Clin Chem. 1975, 21(8):1136-40). The concentration of urea in the absence of any compound was considered as the maximum enzyme activity. The absorbance of cell culture media (background) was subtracted from all the values.
The IC50 values were calculated using GraphPad Prism 7.0. and assigned into the following classes: A=10-100 μM; and B>100 μM.

[2] = target: T2, recombinant human arginase 1 (hARG1) (Homo sapiens, UniProt P05089); test: Human arginase inhibition assay (colorimetric urea detection), arginase 1; type: biochemical; details: IC50 class; hydrochloride salts; 1 h at 37° C., pH 7.4, 10 mM L-arginine, 200 μM MnCl2; read-out: Activity Class (ARG I)
T2 construct: made in house; host or cells: E. coli
T2 sequence (P05089 1-322): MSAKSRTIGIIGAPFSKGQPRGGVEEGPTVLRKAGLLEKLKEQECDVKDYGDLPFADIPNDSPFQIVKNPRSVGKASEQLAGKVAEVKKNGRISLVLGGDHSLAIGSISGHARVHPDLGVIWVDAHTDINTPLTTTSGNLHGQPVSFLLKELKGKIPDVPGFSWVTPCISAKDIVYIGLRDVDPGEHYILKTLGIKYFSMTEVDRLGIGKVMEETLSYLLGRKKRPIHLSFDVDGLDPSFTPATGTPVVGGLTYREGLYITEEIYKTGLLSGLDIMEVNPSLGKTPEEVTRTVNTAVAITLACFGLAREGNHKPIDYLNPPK
Procedure: (§1) Human Arginase Inhibition Assay
(§2) The inhibitory activities of the compounds of the invention were assessed using recombinant human arginases 1 and 2. Both enzymes were biosynthesized using a prokaryotic expression system (E. coli) and purified by fast protein liquid chromatography (FPLC). The compounds were screened in 96-well plates at the total reaction volume of 100 μL. Briefly, recombinant enzymes were incubated with the tested compounds for 1 h at 37° C. in the reaction buffer (100 mM sodium phosphate buffer, 130 mM NaCl, 1 mg/mL BSA, pH 7.4) containing substrate (L-arginine hydrochloride, 10 mM for hARG1 and 20 mM for hARG2) and cofactor (200 μM MnCl2). The assay is based on the detection of urea, which is generated during the conversion of L-arginine into L-omithine catalyzed by ARG1 or ARG2 (Baggio et al. J Pharmacol. Exp. Ther. 1999, 290, 1409-1416). The colorimetrically detectable product was developed by adding a mixture of reagent A (4 mM oPA, 50 mM boric acid, 1 M sulfuric acid, 0.03% Brij-35) and reagent B (4 mM NED, 50 mM boric acid, 1 M sulfuric acid, 0.03% Brij-35) in equal proportions. The absorbance for each well was measured at 515 nm and the enzyme inhibition was calculated. The urea production in the absence of any tested compound was considered as maximal enzyme activity. The absorbance at the absence of arginase (background) was subtracted from all the values. The normalized values were analyzed using GraphPad Prism 7.0 software by plotting inhibition curves and determining the IC50 values.
(§3) The inhibitory activity classes of the hydrochloride salts of the exemplary compounds according to the invention are presented in Table 1

[3] = target: T3, recombinant human arginase 2 (hARG2) (Homo sapiens, UniProt P78540); test: Human arginase inhibition assay (colorimetric urea detection), arginase 2; type: biochemical; details: IC50 class; hydrochloride salts; 1 h at 37° C., pH 7.4, 20 mM L-arginine, 200 μM MnCl2; read-out: Activity Class (ARG II)
T3 construct: made in house; host or cells: E. coli
T3 sequence (P78540 23-354): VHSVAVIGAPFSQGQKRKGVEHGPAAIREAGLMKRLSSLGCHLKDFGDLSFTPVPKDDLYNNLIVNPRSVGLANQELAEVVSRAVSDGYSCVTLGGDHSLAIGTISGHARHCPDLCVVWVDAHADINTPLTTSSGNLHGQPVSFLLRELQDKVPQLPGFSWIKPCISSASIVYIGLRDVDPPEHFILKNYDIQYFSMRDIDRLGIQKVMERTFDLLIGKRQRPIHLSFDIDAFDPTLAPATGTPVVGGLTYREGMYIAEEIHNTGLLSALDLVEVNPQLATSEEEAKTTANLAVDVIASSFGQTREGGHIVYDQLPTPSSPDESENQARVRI
Procedure: as §1, §2, §3

SMILES | IC50 [1] [µM] | IC50 [2] [µM] | IC50 [3] [µM]
CC(C)[C@H](N)C(=O)NC[C@@H]1CC[C@@H](CCB(O)O)C[C@]1(N)C(=O)O [Example 2, (1R,2S,5R)-1-Amino-2-(((S)-2-amino-3-methylbutanamido)methyl)-5-(2-boronoethyl)cyclohexane-1-carboxylic acid dihydrochloride] | 10 to 100 | 0.1 to 0.199 | 0.2 to 0.299
N[C@@H](Cc1ccccc1)C(=O)NC[C@@H]1CC[C@@H](CCB(O)O)C[C@]1(N)C(=O)O [Example 3, (1R,2S,5R)-1-Amino-2-(((S)-2-amino-3-phenylpropanamido)methyl)-5-(2-boronoethyl)cyclohexane-1-carboxylic acid dihydrochloride] | > 100 | > 0.3 | > 0.3
NCC(=O)NC[C@@H]1CC[C@@H](CCB(O)O)C[C@]1(N)C(=O)O [Example 4, (1R,2S,5R)-1-Amino-2-((2-aminoacetamido)methyl)-5-(2-boronoethyl)cyclohexane-1-carboxylic acid dihydrochloride] | > 100 | 0.001 to 0.099 | > 0.3
N[C@]1(C(=O)O)C[C@H](CCB(O)O)CC[C@H]1CNC(=O)[C@@H]1CCCN1 [Example 5, (1R,2S,5R)-1-Amino-5-(2-boronoethyl)-2-(((S)-pyrrolidine-2-carboxamido)methyl)cyclohexane-1-carboxylic acid dihydrochloride] | > 100 | 0.001 to 0.099 | > 0.3
CC(C)C[C@H](N)C(=O)NC[C@@H]1CC[C@@H](CCB(O)O)C[C@]1(N)C(=O)O [Example 6, (1R,2S,5R)-1-Amino-2-(((S)-2-amino-4-methylpentanamido)methyl)-5-(2-boronoethyl)cyclohexane-1-carboxylic acid dihydrochloride] | 10 to 100 | 0.001 to 0.099 | 0.1 to 0.199
NCCCC[C@H](N)C(=O)NC[C@@H]1CC[C@@H](CCB(O)O)C[C@]1(N)C(=O)O [Example 9, (1R,2S,5R)-1-Amino-5-(2-boronoethyl)-2-(((S)-2,6-diaminohexanamido)methyl)cyclohexane-1-carboxylic acid trihydrochloride] | > 100 | 0.001 to 0.099 | > 0.3
CC[C@H](C)[C@H](N)C(=O)NC[C@@H]1CC[C@@H](CCB(O)O)C[C@]1(N)C(=O)O [Example 10, (1R,2S,5R)-1-Amino-2-(((2S,3S)-2-amino-3-methylpentanamido)methyl)-5-(2-boronoethyl)cyclohexane-1-carboxylic acid dihydrochloride] | > 100 | 0.001 to 0.099 | > 0.3
CC(C)(C)[C@H](N)C(=O)NC[C@@H]1CC[C@@H](CCB(O)O)C[C@]1(N)C(=O)O [Example 12, (1R,2S,5R)-1-Amino-2-(((S)-2-amino-3,3-dimethylbutanamido)methyl)-5-(2-boronoethyl)cyclohexane-1-carboxylic acid dihydrochloride] | > 100 | 0.001 to 0.099 | 0.2 to 0.299
N=C(N)NCCC[C@H](N)C(=O)NC[C@@H]1CC[C@@H](CCB(O)O)C[C@]1(N)C(=O)O [Example 13, (1R,2S,5R)-1-Amino-2-(((S)-2-amino-5-guanidinopentanamido)methyl)-5-(2-boronoethyl)cyclohexane-1-carboxylic acid trihydrochloride] | > 100 | 0.001 to 0.099 | > 0.3
CSCC[C@H](N)C(=O)NC[C@@H]1CC[C@@H](CCB(O)O)C[C@]1(N)C(=O)O [Example 17, (1R,2S,5R)-1-Amino-2-(((S)-2-amino-4-(methylthio)butanamido)methyl)-5-(2-boronoethyl)cyclohexane-1-carboxylic acid dihydrochloride] | 10 to 100 | 0.001 to 0.099 | 0.2 to 0.299
CC(C)[C@H](N)C(=O)NC[C@@H]1CC[C@@H](CCB2OC(=O)CC(CC(=O)O)(C(=O)O)O2)C[C@]1(N)C(=O)O (stereo partly drawn) [Example 33, 2-(2-((1R,3R,4S)-3-Amino-4-(((S)-2-amino-3-methylbutanamido)methyl)-3-carboxycyclohexyl)ethyl)-4-(carboxymethyl)-6-oxo-1,3,2-dioxaborinane-4-carboxylic acid dihydrochloride] | – | 0.1 to 0.199 | > 0.3
CC(C)[C@H](N)C(=O)NC[C@H]1CC[C@@H](CCB(O)O)C[C@]1(N)C(=O)O [Example 34, (1R,2R,5R)-1-Amino-2-(((S)-2-amino-3-methylbutanamido)methyl)-5-(2-boronoethyl)cyclohexane-1-carboxylic acid dihydrochloride] | – | > 0.3 | > 0.3
CCN[C@]1(C(=O)O)C[C@H](CCB(O)O)CC[C@H]1CNC(=O)[C@H](C)N [Example 35, (1R,2S,5R)-2-(((S)-2-Aminopropanamido)methyl)-5-(2-boronoethyl)-1-(ethylamino)cyclohexane-1-carboxylic acid dihydrochloride] | – | > 0.3 | > 0.3
CN[C@]1(C(=O)O)C[C@H](CCB(O)O)CC[C@H]1CNC(=O)[C@H](C)N [Example 36, (1R,2S,5R)-2-(((S)-2-Aminopropanamido)methyl)-5-(2-boronoethyl)-1-(methylamino)cyclohexane-1-carboxylic acid dihydrochloride] | – | > 0.3 | > 0.3
